# From PMC6429117, “Discovery of Galangin as a Potential DPP-4 Inhibitor That Improves Insulin-Stimulated Skeletal Muscle Glucose Uptake: A Combinational Therapy for Diabetes” (International Journal of Molecular Sciences, 2019)
# Molecular target: T1, dipeptidyl peptidase-4 (DPP-4) (Homo sapiens, UniProt P27487)
# T1 construct: gene DPP4; recombinant human DPP-4 enzyme
# Assay: fluorogenic enzyme inhibition assay (H-Gly-Pro-AMC cleavage, Sigma DPP-4 inhibitor screening kit)
# Assay type: biochemical
# T1 sequence (P27487 39-766): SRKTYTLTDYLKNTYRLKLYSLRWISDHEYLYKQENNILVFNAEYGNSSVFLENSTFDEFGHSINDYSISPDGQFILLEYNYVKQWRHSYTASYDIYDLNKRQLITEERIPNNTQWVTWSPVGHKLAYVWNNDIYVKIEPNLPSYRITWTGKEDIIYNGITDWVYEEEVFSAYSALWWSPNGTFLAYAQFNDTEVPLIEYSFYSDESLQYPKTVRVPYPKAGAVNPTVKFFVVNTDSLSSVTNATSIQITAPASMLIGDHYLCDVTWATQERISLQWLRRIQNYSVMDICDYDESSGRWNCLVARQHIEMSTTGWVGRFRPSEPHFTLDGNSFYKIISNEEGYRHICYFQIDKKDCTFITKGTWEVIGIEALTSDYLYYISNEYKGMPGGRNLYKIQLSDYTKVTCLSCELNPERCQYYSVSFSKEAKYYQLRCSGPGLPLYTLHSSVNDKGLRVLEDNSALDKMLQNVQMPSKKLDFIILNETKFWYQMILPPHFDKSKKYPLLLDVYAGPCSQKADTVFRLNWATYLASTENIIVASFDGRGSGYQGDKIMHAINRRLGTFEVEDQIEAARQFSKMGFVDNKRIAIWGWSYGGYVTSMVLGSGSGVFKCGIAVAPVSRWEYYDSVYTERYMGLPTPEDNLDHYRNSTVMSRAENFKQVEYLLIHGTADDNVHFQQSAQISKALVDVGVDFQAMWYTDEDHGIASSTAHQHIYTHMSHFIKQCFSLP
smiles,measurement,value
"O=c1c(O)c(-c2ccccc2)oc2cc(O)cc(O)c12 [Galangin, 3,5,7-trihydroxyflavone]",IC50,40.1 µM
